In BindingDB's records for patent US20250268854 (C/O Vesper Bio, 2025):

Experiments:
Sortilin [1] = biological target: T1, Sortilin (Homo sapiens, UniProt Q99523); experiment: Neurotensin Scintillation Proximity Assay
T1 sequence (Q99523 whole entry): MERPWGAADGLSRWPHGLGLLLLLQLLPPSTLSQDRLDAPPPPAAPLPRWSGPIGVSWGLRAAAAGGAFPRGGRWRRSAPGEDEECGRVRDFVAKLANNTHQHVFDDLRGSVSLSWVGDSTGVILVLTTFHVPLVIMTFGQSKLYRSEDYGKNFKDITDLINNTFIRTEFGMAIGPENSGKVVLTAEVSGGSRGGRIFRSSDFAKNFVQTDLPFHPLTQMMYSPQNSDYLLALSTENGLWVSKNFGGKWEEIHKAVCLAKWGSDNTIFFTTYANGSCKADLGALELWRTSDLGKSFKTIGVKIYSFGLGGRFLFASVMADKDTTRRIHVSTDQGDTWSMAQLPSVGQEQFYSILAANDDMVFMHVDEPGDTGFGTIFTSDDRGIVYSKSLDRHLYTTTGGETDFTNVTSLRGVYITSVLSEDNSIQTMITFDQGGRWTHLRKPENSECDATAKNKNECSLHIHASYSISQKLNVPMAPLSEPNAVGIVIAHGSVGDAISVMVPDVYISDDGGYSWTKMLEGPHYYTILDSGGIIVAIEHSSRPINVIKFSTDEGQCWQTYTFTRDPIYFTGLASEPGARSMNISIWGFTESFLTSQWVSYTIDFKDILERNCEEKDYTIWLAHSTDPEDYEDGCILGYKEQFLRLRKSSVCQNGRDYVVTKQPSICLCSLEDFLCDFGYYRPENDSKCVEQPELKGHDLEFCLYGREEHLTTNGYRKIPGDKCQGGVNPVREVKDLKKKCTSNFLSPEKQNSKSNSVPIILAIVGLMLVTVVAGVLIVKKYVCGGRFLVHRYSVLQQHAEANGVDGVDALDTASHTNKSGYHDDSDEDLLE
Protocol: Compound affinity was determined by measuring the displacement of [3H]-neurotensin binding to h-Sortilin in SPA format. Total volume of 40 μl in 50 mM HEPES pH 7.4 assay buffer containing 100 mM NaCl, 2.0 mM CaCl2, 0.1% BSA and 0.1% Tween-20. […] Dose-response evaluation of compounds was performed with 8 concentrations of drugs (covering 3 decades). IC50 values were calculated by nonlinear regression using the sigmoid concentration-response (variable slope) using CDD Vault software. All values reported are average of at least 2 determinations.

Sortilin [2] = biological target: T1, Sortilin; experiment: Rapid Kinetics Assay
Protocol: Compounds were screened at a final assay concentration of 1 μM and a final DMSO concentration was 1%. To achieve this, compounds were diluted in DMSO from 10 mM stocks to 100 μM (100×final assay concentration) then diluted 1:100 in running buffer which contained no DMSO to establish a final assay concentration of compound of 1 μM and a final DMSO concentration of 1% [DMSO].Compounds and DMSO were mixed by plate shaking at 1000 rpm for 60 seconds using a Bioshake instrument.

Row | Structure (SMILES) | IC50 (Sortilin [1]) | Kd (Sortilin [2])
1 | COc1cccc(CN[C@@H](CCC(C)(C)C)C(=O)O)c1F [US20250268854, Example 34] | 720 nM | 492 nM
2 | C[C@@H](N[C@@H](CCC(C)(C)C)C(=O)O)c1cccc2c1ccn2C [US20250268854, Example 63] | 200 nM | 56.7 nM
3 | CC(C)(C)CC[C@H](NC1=NC2C=CC=CC2OC2C=CC=CC12)C(=O)O (some centres undefined) [US20250268854, Example 20] | 1490 nM | –
4 | CC(C)(C)CC[C@H](NCc1cc2ccccc2[nH]1)C(=O)O [US20250268854, Example 50] | 610 nM | –
5 | CC(C)(C)CC[C@H](NCc1ccncn1)C(=O)O [US20250268854, Example 136] | 1600 nM | 26400 nM
6 | C[C@H](N[C@@H](CCC(C)(C)C)C(=O)O)c1cccc2c1ccn2C [US20250268854, Example 64] | 460 nM | 102 nM
7 | CC(C)(C)CC[C@H](NCc1cccc(C#N)c1)C(=O)O [US20250268854, Example 142] | 1260 nM | –
8 | CC(C)(C)CC[C@H](NCC1=CC(Cl)CC(Cl)=C1)C(=O)O (some centres undefined) [US20250268854, Example 32] | 840 nM | –
9 | COC1C=C(CN[C@@H](CCC(C)(C)C)C(=O)O)C=NC1 (some centres undefined) [US20250268854, Example 144] | 430 nM | 310 nM
